Reference: patent publication US8618287B2, “Derivatives of triazines and uracils, their preparation and their application in human therapeutics” (Pierre Fabre Medicament, priority 2008, dated 2013)

Experiments:
[1] = target: T1, Human SCD-1 (Homo sapiens, UniProt O00767); assay: Human SCD-1 enzymatic activity from microsomes of HepG2 cells (conversion of stearic acid into oleic acid); type: biochemical; conditions: 10 μM compound, microsomal fraction of HepG2 cells, relative to carrier 0.1% DMSO; for inhibition at 10 µM: read-out: HSCD-1 (HEPG2) % inh. (10 μM)
T1 construct: adding 125 μg of microsomal fraction of HepG2 cells; host or cells: HepG2 human hepatocarcinoma cells (microsomal fraction)
T1 sequence (O00767 1-359): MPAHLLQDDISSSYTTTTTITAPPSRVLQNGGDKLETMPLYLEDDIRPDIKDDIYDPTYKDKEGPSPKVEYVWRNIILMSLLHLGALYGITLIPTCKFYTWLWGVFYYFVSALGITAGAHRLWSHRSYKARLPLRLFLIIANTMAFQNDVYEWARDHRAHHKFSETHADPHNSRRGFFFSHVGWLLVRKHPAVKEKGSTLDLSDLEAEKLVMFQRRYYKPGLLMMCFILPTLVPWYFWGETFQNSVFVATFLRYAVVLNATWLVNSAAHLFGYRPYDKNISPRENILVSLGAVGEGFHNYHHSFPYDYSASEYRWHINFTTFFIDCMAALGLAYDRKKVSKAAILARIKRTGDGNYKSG
Procedure: In vitro: Human SCD-1 enzymatic activity from microsomes of HepG2 cells after treatment with inhibitory compounds (inhibition %).
Human hepatocarcinoma HepG2 cells (ATCC, HB-8065) are grown to confluence and then trypsinized. The cell pellet is taken up in 10 mM Tris buffer (pH 7.4), saccharose (250 mM) DTT (1 mM) and then the cells are lyzed by sonication. The microsomes are obtained after centrifugation at 10,000 g for 20 minutes a 4° C. followed by centrifugation of the supernatant at 100,000 g for 60 minutes a 4° C. The pellet is taken up in 10 mM Tris buffer (pH 7.4) saccharose (250 mM) at 4° C. and the microsomal proteins are assayed and stored at −196° C. (liquid nitrogen).
The enzymatic reaction measures the conversion of stearic acid (a C18:0 fatty acid) into oleic acid (C18:1 fatty acid) by SCD-1. The enzymatic reaction is started by adding 125 μg of microsomal fraction of HepG2 cells to tubes (total reaction volume of 500 μl) containing 62 μM of stearic acid (45 μM of stearic acid and 17 μM of [^14C] stearic acid) in a phosphate buffer at 100 mM (pH 7.16) with 7.2 mM of ATP, 0.54 mM of CoA, 6 mM of MgCl2, 0.8 mM of NADH and the inhibitory compound or the carrier (0.1% DMSO). The tubes are incubated for 20 minutes at 37° C. and the enzymatic reaction is then stopped by adding KOH (12%) and saponification for 30 minutes at 80° C. After acidification (3N HCl), the fatty acids are extracted twice with ethyl ether, evaporated under nitrogen before being taken up with a methanol/dichloromethane (3:1) mixture. The product of the reaction (C18:1) is separated from the substrate of the reaction (C18:0) by HPLC (Perkin Elmer, C18 reverse phase column) coupled to a on-line radioactivity detector (FlowOne). Enzymatic activity is calculated in picomoles of stearic acid converted into oleic acid per minute and per mg of protein. For each inhibitory compound, an inhibition % is determined relatively to the reference enzymatic activity (carrier 0.1% DMSO). Sterculic acid is the reference inhibitory compound (Gomez F. E., Bauman D. E., Ntambi J. M., Fox B. G. Effects of sterculic acid on stearoyl-CoA desaturase in differentiating […] adipocytes. Biochem Biophys Res Commun. 300 316-326 (2003)).

SMILES	melting point	inhibition at 10 µM [1]	HSCD-1 (HEPG2) % inh. (10 μM) [1]
CCOCCOCCn1nc(N2CCC(Oc3ccccc3C(F)(F)F)CC2)c(=O)n(C)c1=O [Example 88, 2-[2-(2-ethoxy-ethoxy)-ethyl]-4-methyl-6-[4-(2-trifluoromethyl-phenoxy)-piperidin-1-yl]-2H-[1,2,4]triazine-3,5-dione]	44 °C	48%	
Cc1ccccc1OC1CCN(c2nn(C)c(=O)n(C)c2=O)CC1 [Example 31, 2,4-dimethyl-6-(4-o-tolyloxy-piperidin-1-yl)-2H-[1,2,4]triazine-3,5-dione]	102 °C	73%	
Cn1c(=O)c(N2CCC(Oc3ccccc3C(F)(F)F)CC2)nn(-c2ccc(C#N)cc2)c1=O [Example 83, 4-{4-methyl-3,5-dioxo-6-[4-(2-trifluoromethyl-phenoxy)-piperidin-1-yl]-4,5-dihydro-3H-[1,2,4]triazin-2-yl}-benzonitrile]	72 °C	79%	
Cn1nc(N2CCC(Oc3cc(C(F)(F)F)ccc3Cl)CC2)c(=O)n(C)c1=O [Example 29, 6-[4-(2-chloro-5-trifluoromethyl-phenoxy)-piperidin-1-yl]-2,4-dimethyl-2H-[1,2,4]triazine-3,5-dione]	160 °C	71%	
Cn1nc(N2CCC(Oc3cc(F)ccc3Cl)CC2)c(=O)n(C)c1=O [Example 30, 6-[4-(2-chloro-5-fluoro-phenoxy)-piperidin-1-yl]-2,4-dimethyl-2H-[1,2,4]triazine-3,5-dione]	168 °C	86%	
Cn1c(=O)c(N2CCC(Oc3ccccc3C(F)(F)F)CC2)nn(CCCC(=O)c2cccs2)c1=O [Example 19, 4-methyl-2-(4-oxo-4-thiophen-2-yl-butyl)-6-[4-(2-trifluoromethyl-phenoxy)-piperidin-1-yl]-2H-[1,2,4]triazine-3,5-dione]		57%	
Cn1c(=O)c(N2CCC(Oc3ccccc3Cl)CC2)nn(CCCC(F)(F)F)c1=O [Example 25, 6-[4-(2-chloro-phenoxy)-piperidin-1-yl]-4-methyl-2-(4,4,4-trifluoro-butyl)-2H-[1,2,4]triazine-3,5-dione]		70%	
Cn1c(=O)c(N2CCC(Oc3ccccc3C(F)(F)F)CC2)nn(CCc2c[nH]c3ccccc23)c1=O [Example 16, 2-[2-(1H-Indol-3-yl)-ethyl]-4-methyl-6-[4-(2-trifluoromethyl-phenoxy)-piperidin-1-yl]-2H-[1,2,4]triazine-3,5-dione]		57%	
Cn1nc(N2CCC(Oc3ccccc3F)CC2)c(=O)n(C)c1=O [Example 28, 6-[4-(2-fluoro-phenoxy)-piperidin-1-yl]-2,4-dimethyl-2H-[1,2,4]triazine-3,5-dione]		50%	
CCCCCCCCC1=C(CCCCCCCC(=O)O)C1 [Sterculic acid, reference compound]			100%
Cn1nc(N2CCC(Oc3ccccc3Cl)CC2)c(=O)n(C)c1=O [Example 27, 6-[4-(2-chloro-phenoxy)-piperidin-1-yl]-2,4-dimethyl-2H-[1,2,4]triazine-3,5-dione]		82%	

More lines, now with the values ahead:

melting point	inhibition at 10 µM [1]	HSCD-1 (HEPG2) % inh. (10 μM) [1]	SMILES
76 °C	43%		Cn1nc(N2CCN(C(=O)c3ccccc3C(F)(F)F)CC2)c(=O)n(C)c1=O [Example 5, 2,4-dimethyl-6-[4-(2-trifluoromethyl-benzoyl)-piperazin-1-yl]-2H-[1,2,4]triazine-3,5-dione]
205 °C	57%		Cn1c(=O)[nH]nc(N2CCN(Cc3ccccc3C(F)(F)F)CC2)c1=O [Example 64, 4-methyl-6-[4-(2-trifluoromethyl-benzyl)-piperazin-1-yl]-2H-[1,2,4]triazine-3,5-dione]
150 °C	95%		Cn1c(=O)[nH]nc(N2CCC(Oc3ccccc3C(F)(F)F)CC2)c1=O [Example 85, 4-methyl-6-[4-(2-trifluoromethyl-phenoxy)-piperidin-1-yl]-2H-[1,2,4]triazine-3,5-dione]
63 °C	98%		Cn1c(=O)c(N2CCC(Oc3ccccc3C(F)(F)F)CC2)nn(-c2cccnc2)c1=O [Example 81, 4-methyl-2-pyridin-3-yl-6-[4-(2-trifluoromethyl-phenoxy)-piperidin-1-yl]-2H-[1,2,4]triazine-3,5-dione]
	71%		Cn1c(=O)c(N2CCN(Cc3ccccc3C(F)(F)F)CC2)nn(CCCC(F)(F)F)c1=O [Example 57, 4-methyl-2-(4,4,4-trifluoro-butyl)-6-[4-(2-trifluoromethyl-benzyl)-piperazin-1-yl]-2H-[1,2,4]triazine-3,5-dione]
235 °C	77%		Cn1c(=O)[nH]nc(N2CCN(C(=O)c3ccccc3C(F)(F)F)CC2)c1=O [Example 4, 4-methyl-6-[4-(2-trifluoromethyl-benzoyl)-piperazin-1-yl]-2H-[1,2,4]triazine-3,5-dione]
	92%		Cn1nc(N2CCC(Oc3ccccc3C(F)(F)F)CC2)c(=O)n(C)c1=O [Example 11, 2,4-dimethyl-6-[4-(2-trifluoromethyl-phenoxy)-piperidin-1-yl]-2H-[1,2,4]triazine-3,5-dione]
	64%		CC(C)CCn1nc(N2CCN(C(=O)c3cc(F)ccc3C(F)(F)F)CC2)c(=O)n(C)c1=O [Example 48, 6-[4-(5-fluoro-2-trifluoromethyl-benzoyl)-piperazin-1-yl]-4-methyl-2-(3-methyl-butyl)-2H-[1,2,4]triazine-3,5-dione]
146 °C	63%		Cn1nc(N2CCN(C(=O)c3ccccc3C(F)(F)F)CC2)c(=O)[nH]c1=O [Example 2, 2-methyl-6-[4-(2-trifluoromethyl-benzoyl)-piperazin-1-yl]-2H-[1,2,4]triazine-3,5-dione]
285 °C	73%		O=C(c1ccccc1C(F)(F)F)N1CCN(c2c[nH]c(=O)[nH]c2=O)CC1 [Example 6, 5-[4-(2-trifluoromethyl-benzoyl)-piperazin-1-yl]-1H-pyrimidine-2,4-dione]
	11%		CCCCCCCn1c(=O)c(N2CCN(C(=O)c3ccccc3C(F)(F)F)CC2)nn(C)c1=O [Example 1, 4-heptyl-2-methyl-6-[4-(2-trifluoromethyl-benzoyl)-piperazin-1-yl]-2H-[1,2,4]triazine-3,5-dione]
	60%		CCCCn1nc(N2CCN(C(=O)c3ccccc3C(F)(F)F)CC2)c(=O)n(C)c1=O [Example 74, 2-butyl-4-methyl-6-[4-(2-trifluoromethyl-benzoyl)-piperazin-1-yl]-2H-[1,2,4]triazine-3,5-dione]
	75%		CCCCn1nc(N2CCC(Oc3ccccc3C(F)(F)F)CC2)c(=O)n(C)c1=O [Example 13, 2-butyl-4-methyl-6-[4-(2-trifluoromethyl-phenoxy)-piperidin-1-yl]-2H-[1,2,4]triazine-3,5-dione]
	84%		Cn1c(=O)[nH]nc(N2CCN(C(=O)c3cc(F)ccc3C(F)(F)F)CC2)c1=O [Example 69, 6-[4-(5-fluoro-2-trifluoromethyl-benzoyl)-piperazin-1-yl]-4-methyl-2H-[1,2,4]triazine-3,5-dione]
